# Test results: patent US11596631B2, “CDK12 inhibitors and their uses” (The University of Nottingham, priority 2016, dated 2023)
# Columns and labels:
# CDK9 = CDK9 (Homo sapiens, UniProt P50750); details: previously reported IC50 values (FIG. 13); cited from earlier work
# [1] = tested on: nuclear foci in DM1 fibroblasts; assay: nuclear foci assay (in situ hybridisation with Cy3 CAG10 probe, high content imaging); assay type: cell-based; details: for activity in the nuclear foci assay (nuclear foci relative to DMSO treated cells): DM1 fibroblasts, 24 hours, dilution series; for reduction in foci on exposure for different lengths of time: 2 hours to 48 hours
# Method: Using a previously reported assay the PKIS collection was screened for compounds that reduce nuclear foci and the compounds were then analysed for their known selectivity profiles to identify the common kinase targets (Ketley, A. et al. (2014). Hum Mol Genet, 23: 1551-1562). […] Following treatment, fluorescent in situ hybridisation was performed with a cy3 labelled CAG10 probe, to visualize nuclear foci and cells were analysed on a Molecular Devices plate reader with customised MetaExpress software (Ketley, A. et al. (2014). Hum Mol Genet, 23: 1551-1562). Compounds that reduced nuclear foci in a concentration dependent manner, compared to DMSO treated cells were identified and prioritized for further study.
# […] Plates were analysed on a Molecular Devices Micro High Content Imaging system, with nine fields imaged per well to give approximately 100 cells per well, per compound treatment. The nuclear area was identified by Hoechst stain and the number, size and intensity of foci was determined by scoring adjacent pixels that were 80 grayscales or more above background.
# [2] = tested on: mutant DMPK transcripts in DM1 fibroblast cells; assay: RT-PCR / BpmI assay for repeat expansion transcripts; assay type: cell-based
# Method: (A) Ethidium bromide stained gel showing RT-PCR products from nuclear (N) and cytoplasmic (C) RNA fractions following amplification and BpmI digest of a fragment of DMPK. GAPDH is used as a loading control. […] (D) DM1 cells treated with SNS-032 for 2 hours.
# Reverse transcription was performed using 1 μg total RNA from compound-treated and untreated cells. […] For Genescan analysis primer N11 was labelled with FAM. Amplification was performed with a Tm of 58° C. The PCR product was subsequently heated to 95° C. for 2 minutes followed by cooling to 4° C. For Bpml restriction digestion analysis of DMPK PCR products, 8 μl of PCR mixture was digested overnight with restriction enzyme Bpml (NEB) in a total reaction volume of 20 μl at 37° C. The final products were analysed by electrophoresis at 90V with 3% agarose gels and the density of bands quantified using ImageJ software or by fragment analysis on an AB1377 sequencer followed by Genescan quantification.
# HSALR mice = assay: inhibitor treatment in DM1 mouse model; assay type: in vivo; details: compared to vehicle control animals
# Method: FIG. 7: Inhibitor treatment in a DM1 mouse model (A) Combined myotonia grade scores in quadriceps, gastrocnemius and paraspinal muscles from HSALR mice following vehicle and dinaciclib compound treatment (n=6 per treatment group) (B) Myotonia grades by muscle type in dinaciclib and vehicle treated HSALR mice.
# To establish the in vivo effect of this inhibitor HSA^LR mice were treated by intraperitoneal injection for a 28 day treatment period comprising 12 injections in total.
# CDK12 = target: T1, CDK12 (Homo sapiens, UniProt Q9NYV4); assay: chemoproteomics dose-response competition binding with SNS-032 affinity matrix; details: K562 or A204 cell extract, SNS-032 beads
# T1 construct: endogenous in cells; host or cells: K562 or A204 cell extract
# From the text: FIG. 4: Chemoproteomics target deconvolution. IC50 values were generated by affinity capturing of kinases from K562 or A204 cell extract using beads derivatized with SNS-032, in the presence of different concentrations of free competing compound or vehicle (DMSO). pIC50 values are plotted against the pIC50 in the foci inhibition assay for each compound. A good correlation of kinase binding affinity with the inhibitory activity on foci is observed for CDKS, CDK7, CDK9, and CDK12. r: Pearson correlation coefficient; p: p-value (calculated probability).
# To determine the specific CDKs responsible for the reduction of nuclear foci it was sought to expand the target coverage within the CDK family by the immobilization of two of the active compounds containing a suitable secondary amine; SNS-032 and AT7519 (FIG. 10). […] To confirm that the K562, A204 and DM1 cell lines express the same kinases a whole proteome analysis was conducted. All CDK/PCTK proteins identified by profiling were also identified in the cells used for the phenotypic foci assay as follows: […]
# Affinity profiling was performed as described previously (Bantscheff, M. et al. (2007). Nat Biotechnol, 25: 1035-1044 and Bantscheff, M. et al. (2011). Nat Biotechnol, 29: 255-265). […] Proteins were alkylated, separated on 4-12% NuPAGE (Invitrogen), stained with colloidal Coomassie, and quantified by isobaric mass tagging and LC-MS/MS.
# [3] = DM1 cells, 2 hours treatment, no recovery time
# Chain of CDK9 (P50750 whole entry): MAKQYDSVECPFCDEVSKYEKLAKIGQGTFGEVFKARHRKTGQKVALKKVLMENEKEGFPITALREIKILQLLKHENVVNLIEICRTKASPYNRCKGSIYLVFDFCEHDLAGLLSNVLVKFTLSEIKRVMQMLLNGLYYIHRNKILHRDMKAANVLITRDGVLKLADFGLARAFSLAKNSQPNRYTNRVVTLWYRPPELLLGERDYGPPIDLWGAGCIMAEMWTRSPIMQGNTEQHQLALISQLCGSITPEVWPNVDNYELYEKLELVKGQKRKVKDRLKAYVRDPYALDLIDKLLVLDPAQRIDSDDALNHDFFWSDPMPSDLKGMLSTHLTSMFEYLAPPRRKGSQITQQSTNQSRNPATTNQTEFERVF
# Chain of CDK9 (O60563 whole entry partner): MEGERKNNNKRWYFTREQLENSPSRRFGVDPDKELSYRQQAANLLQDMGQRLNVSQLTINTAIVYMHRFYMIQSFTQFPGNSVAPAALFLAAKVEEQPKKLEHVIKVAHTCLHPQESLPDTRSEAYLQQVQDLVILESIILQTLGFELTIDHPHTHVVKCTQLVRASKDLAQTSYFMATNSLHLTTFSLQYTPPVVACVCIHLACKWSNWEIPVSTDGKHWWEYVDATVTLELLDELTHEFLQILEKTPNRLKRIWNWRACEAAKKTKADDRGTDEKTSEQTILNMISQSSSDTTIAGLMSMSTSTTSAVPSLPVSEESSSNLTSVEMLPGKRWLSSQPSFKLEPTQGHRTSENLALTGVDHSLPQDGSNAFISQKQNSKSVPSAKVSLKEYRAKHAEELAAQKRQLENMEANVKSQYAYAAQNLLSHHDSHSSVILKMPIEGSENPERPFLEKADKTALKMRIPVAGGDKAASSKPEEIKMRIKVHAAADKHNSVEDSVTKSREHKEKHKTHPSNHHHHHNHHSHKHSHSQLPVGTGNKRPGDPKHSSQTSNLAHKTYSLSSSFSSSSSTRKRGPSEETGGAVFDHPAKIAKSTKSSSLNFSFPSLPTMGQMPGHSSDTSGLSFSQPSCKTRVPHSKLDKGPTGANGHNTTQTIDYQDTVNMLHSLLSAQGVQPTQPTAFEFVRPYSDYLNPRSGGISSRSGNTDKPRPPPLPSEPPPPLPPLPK
# T1 sequence (Q9NYV4 whole entry): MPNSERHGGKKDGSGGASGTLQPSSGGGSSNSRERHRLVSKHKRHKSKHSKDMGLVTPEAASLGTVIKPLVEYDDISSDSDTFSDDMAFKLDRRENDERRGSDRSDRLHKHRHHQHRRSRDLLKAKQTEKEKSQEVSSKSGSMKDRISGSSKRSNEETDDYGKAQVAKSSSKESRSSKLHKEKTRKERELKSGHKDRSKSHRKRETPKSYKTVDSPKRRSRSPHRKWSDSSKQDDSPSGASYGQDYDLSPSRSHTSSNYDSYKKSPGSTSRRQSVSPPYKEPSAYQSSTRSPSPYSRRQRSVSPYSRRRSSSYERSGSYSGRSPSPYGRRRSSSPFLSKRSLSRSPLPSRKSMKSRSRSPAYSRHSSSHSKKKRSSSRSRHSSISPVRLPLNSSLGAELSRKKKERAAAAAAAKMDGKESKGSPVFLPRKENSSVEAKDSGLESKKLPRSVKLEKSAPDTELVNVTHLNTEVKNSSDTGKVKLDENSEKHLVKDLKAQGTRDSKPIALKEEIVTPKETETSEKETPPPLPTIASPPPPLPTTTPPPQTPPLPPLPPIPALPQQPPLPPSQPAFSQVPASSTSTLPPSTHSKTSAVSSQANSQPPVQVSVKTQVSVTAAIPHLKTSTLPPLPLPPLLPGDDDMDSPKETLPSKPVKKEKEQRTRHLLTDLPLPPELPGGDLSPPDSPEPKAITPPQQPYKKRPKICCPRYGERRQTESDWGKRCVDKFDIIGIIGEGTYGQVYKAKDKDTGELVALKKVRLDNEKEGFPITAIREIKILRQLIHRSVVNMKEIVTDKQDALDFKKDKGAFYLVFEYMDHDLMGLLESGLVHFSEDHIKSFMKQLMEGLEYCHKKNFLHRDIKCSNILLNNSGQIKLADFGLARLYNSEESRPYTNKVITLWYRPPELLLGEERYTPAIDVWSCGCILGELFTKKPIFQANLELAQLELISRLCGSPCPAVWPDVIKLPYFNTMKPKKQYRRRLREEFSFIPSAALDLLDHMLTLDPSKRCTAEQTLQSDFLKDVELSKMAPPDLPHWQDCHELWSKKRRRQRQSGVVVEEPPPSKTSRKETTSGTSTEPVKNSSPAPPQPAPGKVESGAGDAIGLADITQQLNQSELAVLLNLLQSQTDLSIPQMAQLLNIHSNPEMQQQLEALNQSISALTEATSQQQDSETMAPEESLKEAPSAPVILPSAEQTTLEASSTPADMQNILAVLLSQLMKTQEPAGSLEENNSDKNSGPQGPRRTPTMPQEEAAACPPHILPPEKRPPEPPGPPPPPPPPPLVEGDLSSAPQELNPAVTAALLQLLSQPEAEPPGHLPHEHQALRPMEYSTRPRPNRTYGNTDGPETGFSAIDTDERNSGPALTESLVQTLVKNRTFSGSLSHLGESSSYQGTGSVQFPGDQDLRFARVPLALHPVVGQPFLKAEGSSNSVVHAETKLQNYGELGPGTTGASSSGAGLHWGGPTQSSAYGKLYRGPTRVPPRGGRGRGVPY
# T1 sequence (O75909 whole entry partner): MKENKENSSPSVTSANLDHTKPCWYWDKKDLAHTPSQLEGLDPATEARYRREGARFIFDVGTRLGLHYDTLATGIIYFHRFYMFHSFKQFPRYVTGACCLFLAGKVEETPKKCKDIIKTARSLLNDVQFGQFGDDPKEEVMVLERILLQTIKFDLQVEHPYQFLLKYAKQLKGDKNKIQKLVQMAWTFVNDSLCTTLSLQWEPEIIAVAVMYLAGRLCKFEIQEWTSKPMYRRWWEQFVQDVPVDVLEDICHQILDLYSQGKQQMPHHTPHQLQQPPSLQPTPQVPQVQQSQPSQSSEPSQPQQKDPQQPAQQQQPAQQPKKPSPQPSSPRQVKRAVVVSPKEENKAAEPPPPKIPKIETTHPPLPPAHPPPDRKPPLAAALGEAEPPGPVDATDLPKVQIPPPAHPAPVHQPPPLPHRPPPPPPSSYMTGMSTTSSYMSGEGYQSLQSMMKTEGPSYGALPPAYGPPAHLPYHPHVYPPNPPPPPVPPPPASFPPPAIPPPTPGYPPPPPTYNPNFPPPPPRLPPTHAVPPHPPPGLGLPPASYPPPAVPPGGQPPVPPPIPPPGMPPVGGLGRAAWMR
"activity against the CDK family, in particular CDK12 (CDK12)",Compound,potency against CDK9 (CDK9),activity in the nuclear foci assay (nuclear foci relative to DMSO treated cells) [1],"cells without nuclear foci ([1]; DM1 cells, 2 hours treatment, 48 hours recovery)","cells without nuclear foci ([1]; DM1 cells, 2 hours treatment, 72 hours recovery)","cells with more than 5 foci [1, 3]","cells with no foci [1, 3]",treatment time after which foci reduction was effective ([1]; DM1 fibroblast cells),reduction in foci on exposure for different lengths of time ([1]; DM1 fibroblast cells),location of repeat expansion transcripts after treatment (nuclear and cytoplasmic extracts) [2],"decrease in the relative proportion of repeat expansion transcripts compared to wild type transcripts in the nucleus ([2]; 1 μM, 24 hours, Genescan)",centralised nuclei in muscle fibres (laminin stain) (HSALR mice)
,O=C(NC1CCNCC1)c1[nH]ncc1NC(=O)c1c(Cl)cccc1Cl [AT-7519],highest potency,high activity,,,,,,,,,
,CC(C)(C)c1cnc(CSc2cnc(NC(=O)C3CCNCC3)s2)o1 [SNS-032],highest potency,high activity,14%,36%,28%,10%,2 h,significant reduction in foci,,,
most active inhibitor,CCc1cnn2c(NCc3ccc[n+]([O-])c3)cc(N3CCCC[C@H]3CCO)nc12 [dinaciclib],,significantly increased activity,,,,,,significant reduction in foci,still retained within the nuclear fraction,59%,reduction in centralised nuclei
